# Read-outs that look alike come from different tables or passages of the source.
# Key:
# in vivo = conditions: rat, 0.5 mg/kg
# Protocol: All surgical and experimental procedures were reviewed and approved by the Animal Experimentation Ethics Committee of the Hebrew University Hadassah Medical School, Jerusalem. Male Wistar rats (Harlan, Israel), 290-350 grams in weight, were used for all surgical procedures.
# Animals were anesthetized for the period of surgery by intra-peritoneal injection of 1 ml/kg of ketamine (9%)-xylazine (1%) solution. An indwelling cannula was placed in the right jugular vein of each animal for systemic blood sampling, as described in Jiang et al. [Curr Med Chem 2003, 10:2231-2252]. The cannula was tunneled beneath the skin and exteriorized at the dorsal part of the neck. After completion of the surgical procedure, the animals were transferred to metabolic cages to recover overnight (12-18 hours). During this recovery period and throughout the experiment, food, but not water, was deprived. Animals were randomly assigned to the different experimental groups.
# In order to study the pharmacokinetic parameters of huperzine A, identical doses (0.5 mg/kg) of huperzine A dissolved in water were administered to 6 animals by oral gavage needle and to 6 animals by intravenous infusion through the jugular vein cannula followed by injection of 0.2 ml of heparinized saline (50 IU/ml) to ensure the delivery of the whole dose. Systemic blood samples (400 μl) were taken 5 minutes prior to dosing, and at various time periods post-dose, as indicated. To prevent dehydration, equal volumes of physiological solution were introduced to the rats following each withdrawal of a blood sample.
# Another group (4 animals) received huperzine A as an intra-peritoneal injection. The doses, the vehicle and the volume used in the intra-peritoneal administration were similar to those used in the oral administration experiments.
# Absorption of huperzine A from the colon was studied using an additional experimental group (7 animals). A cannula was placed to the cecum, tunneled beneath the skin and exteriorized at the dorsal part of the neck. Following overnight recovery, the animals were dosed through the colonic cannula and the pharmacokinetic experiment was conducted. The doses, the vehicle and the volume used in the colonic administration were similar to those used in the oral administration experiments. The drug was infused over the course of 90 minutes.
# Absorption of huperzine A from the duodenum was studied using another experimental group (5 animals). A cannula was placed to the duodenum, tunneled beneath the skin and exteriorized at the dorsal part of the neck. Following overnight recovery, the animals were dosed through the duodenal cannula and the pharmacokinetic experiment was conducted. […]
# Huperzine A concentrations in plasma samples were determined by an HPLC assay. The area under plasma concentrations versus time curves (AUC) for huperzine A in individual rats were analyzed using WinNonlin® Professional software version 5.0.1, according to the non-compartmental analysis model, as were other pharmacokinetic parameters (elimination constant (10; elimination half-life (T1/2); peak concentration (Cmax); and time to reach peak concentration (Tmax)). The absolute bioavailability (F) of huperzine A was calculated from the ratio of the AUCs normalized by dose after oral and intravenous administration.
# All tested compounds were analyzed using a Waters 2695 Separation Module HPLC system with a Waters 2475 Fluorescence Detector and a Waters 2996 Photodiode Array Detector (Waters Corporation). […]
# [1] = in vivo, po, cited from earlier work
# Caco-2 cells = format: in vitro ADME
# Protocol: Caco-2 cells were obtained from ATCC (Manassas, Va., USA) and grown in 75 cm^2 flasks with approximately 0.5-1×10^6 cells per flask, at a temperature of 37° C. in a 5% CO2 atmosphere with a relative humidity of 95%. The culture growth medium consisted of Dulbecco's Modified Eagle Medium (DMEM) supplemented with 10% heat-inactivated fetal bovine serum (FBS), 1% nonessential amino acids, and 2 mM L-glutamine. The medium was replaced twice weekly. All medium supplements were obtained from Biological Industries (Beth-Haemek, Israel).
# Cells in a passage range of 52-60 were seeded at a density of […] on untreated culture inserts of a polycarbonate membrane with 0.4 μm pores and a surface area of 1.1 cm^2. The culture inserts containing Caco-2 monolayers were placed in Costar® 24-Transwell plates (12 mm wells). The culture medium was changed every other day. […]
# The permeability coefficient (Papp) for each compound was calculated from the linear plot of drug accumulated versus time, using the following equation: […]
# Intestinal permeability towards huperzine A was evaluated using an in vitro model with Caco-2 epithelial colorectal cell culture, and using an ex-vivo animal intestine model (Ussing chamber model), as described in the Materials and Methods section. […]
# [2] = format: physicochemical; conditions: 1 μg/ml
# Protocol: 0.5 ml of a 1 μg/ml aqueous solution of huperzine A was placed in glass tubes and heated in an oven for 30, 60 or 90 minutes. The samples were then reconstituted with double-distilled water and the amount of remaining huperzine A was determined by HPLC, as described hereinabove.
# [3] = tested on: intestinal tissue (duodenum, jejunum, colon); format: in vitro ADME, rat
smiles,measurement,setting,value
C/C=C1\[C@H]2C=C(C)C[C@]1(N)c1ccc(=O)[nH]c1C2 [huperzine A],bioavailability,"in vivo; male, Wistar",~50%
same,half-life,"in vivo; male, Wistar",~1.67 h
same,bioavailability following colonic infusion,in vivo; po,significantly lower than the bioavailability following oral bolus
same,bioavailability following duodenal infusion,in vivo; po,at least as high as the bioavailability following oral bolus
same,time of maximal plasma levels (Cmax),in vivo; po,25 to 30 min
same,bioavailability,[1]; human,99%
same,half-lives,[1]; human,6 to 12 h
same,time to peak serum concentration,[1],approximately 1 hour
same,permeability coefficient (Papp),Caco-2 cells,"lower than that of antipyrine, and higher than that of mannitol"
same,temperature at which degradation of huperzine A was observed,[2],≥ 150 °C
same,permeability towards huperzine A in the colon,[3],"lower than in the jejunum and duodenum, but was still significant"

# Reference: patent US20130040982A1, “ORAL SUSTAINED RELEASE FORMULATION OF HUPERZINE A” (Yissum Research Development Company of the Hebrew …, priority 2010, published 2013)
